Experimental data published in patent US11130769B2 (Prelude Therapeutics Incorporated, priority 2018, dated 2021).
Read-outs that look alike come from different tables or passages of the source.

Experiments:
MCL-1 = MCL-1 (Homo sapiens (Human), UniProt Q07820); test: Cell free Mcl-1:Bim affinity assay (fluorescence polarization competition); assay type: binding; settings: 15 nM MCL-1, 5 nM FITC-Bim, 1 hour at room temperature, read-out: BIM_Ki
Summary of the method: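 Fluorescence polarization competition: 10-point 3-fold compound dilutions displaced 5 nM FITC-Bim from 15 nM MCL-1 over 1 h at room temperature. Ki was derived from the fitted IC50 using the Nikolovska-Coleska equation, with percent inhibition normalized to DMSO and positive controls.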

H929 cells = test: Cell viability assay (H929 10 FBS); assay type: cell-based; settings: Homo sapiens, NCI-H929, 24 hours, read-out: H929_10FBS IC50
Summary of the method: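 ATP-based luminescence (CellTiter-Glo or ATPlite 1 Step, 30-60 min at RT) gauged viability of H929 myeloma cells after 24 h compound treatment at 37 °C. Cells plated at 4000 per well in 10% FBS RPMI 1640 supplemented with pyruvate, HEPES and glucose.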

Chain of MCL-1 (Q07820 whole entry): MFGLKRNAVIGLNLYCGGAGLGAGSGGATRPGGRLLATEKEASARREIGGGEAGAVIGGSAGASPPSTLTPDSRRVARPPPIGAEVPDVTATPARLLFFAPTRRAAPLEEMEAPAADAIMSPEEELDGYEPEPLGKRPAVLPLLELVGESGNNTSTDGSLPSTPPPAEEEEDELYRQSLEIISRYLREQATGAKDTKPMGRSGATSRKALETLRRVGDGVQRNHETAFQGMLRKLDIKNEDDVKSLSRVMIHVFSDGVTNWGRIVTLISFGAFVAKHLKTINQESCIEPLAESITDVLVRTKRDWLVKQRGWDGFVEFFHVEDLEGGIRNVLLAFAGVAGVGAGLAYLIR

Structure (SMILES) | Ki (MCL-1; class symbols) [nM] | IC50 (H929 cells) [nM] | Ki (MCL-1; numeric values) [nM]
CO[C@@H]1CCN(C(=O)O[C@H]2/C=C/CN(C)C(C)(C)C(=O)NS(=O)(=O)c3ccc4c(c3)N(C[C@@H]3CC[C@H]32)C[C@@]2(CCCc3cc(Cl)ccc32)CO4)C1 [Example 215, [(3R,6R,7S,8E,22S)-6′-Chloro-11,12,12-trimethyl-13,15,15-trioxo-spiro[20-oxa-15-thia-1,11,14-triazatetracyclo[14.7.2.03,6.019,24]pentacosa-8,16,18,24-tetraene-22,1′-tetralin]-7-yl] (3R)-3-methoxypyrrolidine-1-carboxylate] | < 1 | < 500 | 
CC(=O)NS(=O)(=O)c1ccc2c(c1)N(CC1CC1)CC1(CCCc3cc(Cl)ccc31)CO2 (stereo not drawn) [Example 2, N-[6′-Chloro-5-(cyclopropylmethyl)spiro[2,4-dihydro-1,5-benzoxazepine-3,1′-tetralin]-7-yl]sulfonylacetamide] |  | > 1000 | 179
O=C1N[C@@H]2CCN(C2)C(=O)NS(=O)(=O)c2ccc3c(c2)N(C[C@@H]2CC[C@H]2CO1)C[C@@]1(CCCc2cc(Cl)ccc21)CO3 [Example 102, (3R,6R,11R,24S)-6′-Chloro-17,17-dioxo-spiro[8,22-dioxa-17-thia-1,10,14,16-tetrazapentacyclo[16.7.2.111,14.03,6.021,26]octacosa-18(27),19,21(26)-triene-24,1′-tetralin]-9,15-dione] | 1 to 100 | > 1000 | 
CC(C)N1CCN(C(=O)O[C@H]2/C=C/COC(C)(C)C(=O)NS(=O)(=O)c3ccc4c(c3)N(C[C@@H]3CC[C@H]32)C[C@@]2(CCCc3cc(Cl)ccc32)CO4)CC1 [Example 186, [(3R,6R,7S,8E,22S)-6′-Chloro-12,12-dimethyl-13,15,15-trioxo-spiro[11,20-dioxa-15-thia-1,14-diazatetracyclo[14.7.2.03,6.019,24]pentacosa-8,16,18,24-tetraene-22,1′-tetralin]-7-yl] 4-isopropylpiperazine-1-carboxylate] | < 1 | < 500 | 
CN1CC[C@@H](NC(=O)O[C@H]2/C=C/COC(C)(C)C(=O)NS(=O)(=O)c3ccc4c(c3)N(C[C@@H]3CC[C@H]32)C[C@@]2(CCCc3cc(Cl)ccc32)CO4)C1 [Example 152, [(3R,6R,7S,8E,22S)-6′-Chloro-12,12-dimethyl-13,15,15-trioxo-spiro[11,20-dioxa-15-thia-1,14-diazatetracyclo[14.7.2.03,6.019,24]pentacosa-8,16,18,24-tetraene-22,1′-tetralin]-7-yl] N-[(3R)-1-methylpyrrolidin-3-yl]carbamate] | < 1 | < 500 | 
CN1C/C=C/[C@H](OCCN2CCC(F)(F)C2)[C@@H]2CC[C@H]2CN2C[C@@]3(CCCc4cc(Cl)ccc43)COc3ccc(cc32)S(=O)(=O)NC(=O)C1(C)C [Example 288, (3R,6R,7S,8E,22S)-6′-Chloro-7-[2-(3,3-difluoropyrrolidin-1-yl)ethoxy]-11,12,12-trimethyl-15,15-dioxo-spiro[20-oxa-15-thia-1,11,14-triazatetracyclo[14.7.2.03,6.019,24]pentacosa-8,16,18,24-tetraene-22,1′-tetralin]-13-one] | 1 to 100 | > 1000 | 
COC1CCN(C(=O)O[C@H]2/C=C/CN(C)C3(CCC3)C(=O)NS(=O)(=O)c3ccc4c(c3)N(C[C@@H]3CC[C@H]32)C[C@@]2(CCCc3cc(Cl)ccc32)CO4)CC1 [Example 245, [(3R,6R,7S,8E,22S)-6′-Chloro-11-methyl-12,12-(1,3-propylene)-13,15,15-trioxo-spiro[20-oxa-15-thia-1,11,14-triazatetracyclo[14.7.2.03,6.019,24]pentacosa-8,16,18,24-tetraene-22,1′-tetralin]-7-yl] 4-methoxypiperidine-1-carboxylate] | < 1 | < 500 | 
CC1(C)OC/C=C/[C@H](OC(=O)N2CCC(O)CC2)[C@@H]2CC[C@H]2CN2C[C@@]3(CCCc4cc(Cl)ccc43)COc3ccc(cc32)S(=O)(=O)NC1=O [Example 190, [(3R,6R,7S,8E,22S)-6′-Chloro-12,12-dimethyl-13,15,15-trioxo-spiro[11,20-dioxa-15-thia-1,14-diazatetracyclo[14.7.2.03,6.019,24]pentacosa-8,16,18,24-tetraene-22,1′-tetralin]-7-yl] 4-hydroxypiperidine-1-carboxylate] | < 1 | < 500 | 
CC1/C=C/[C@H](OC(=O)N(C)C)[C@@H]2CC[C@H]2CN2C[C@@]3(CCCc4cc(Cl)ccc43)COc3ccc(cc32)S(=O)(=O)NC(=O)C(C)(C)O1 (stereo partly drawn) [Example 292, [(3R,6R,7S,8E,22S)-6′-Chloro-10,12,12-trimethyl-13,15,15-trioxo-spiro[11,20-dioxa-15-thia-1,14-diazatetracyclo[14.7.2.03,6.019,24]pentacosa-8,16,18,24-tetraene-22,1′-tetralin]-7-yl] N,N-dimethylcarbamate] | < 1 | < 500 | 
CO[C@@H]1/C=C/COC(C)(C)C(=O)NS(=O)(=O)c2ccc3c(c2)N(C[C@@H]2CC[C@H]21)C[C@@]1(CCCc2cc(Cl)ccc21)CO3 [Example 30, (3R,6R,7R,8E,22S)-6′-Chloro-7-methoxy-12,12-dimethyl-15,15-dioxo-spiro[[11,20]dioxa-15-thia-1,14-diazatetracyclo[14.7.2.03,6.019,24]pentacosa[8,16(25),17,19(24)]tetraene-22,1′-tetralin]-13-one] | < 1 | < 1000 | 
CCN(CC)CCO[C@H]1/C=C/COC(C)(C)C(=O)NS(=O)(=O)c2ccc3c(c2)N(C[C@@H]2CC[C@H]21)C[C@@]1(CCCc2cc(Cl)ccc21)CO3 [Example 268, (3R,6R,7S,8E,22S)-6′-Chloro-7-[2-(diethylamino)ethoxy]-12,12-dimethyl-15,15-dioxo-spiro[11,20-dioxa-15-thia-1,14-diazatetracyclo[14.7.2.03,6.019,24]pentacosa-8,16,18,24-tetraene-22,1′-tetralin]-13-one] | < 1 | < 500 | 
COCCN1CCN(C(=O)O[C@H]2/C=C/COC(C)(C)C(=O)NS(=O)(=O)c3ccc4c(c3)N(C[C@@H]3CC[C@H]32)C[C@@]2(CCCc3cc(Cl)ccc32)CO4)CC1 [Example 46, [(3R,6R,7S,8E,22S)-6′-Chloro-12,12-dimethyl-13,15,15-trioxo-spiro[11,20-dioxa-15-thia-1,14-diazatetracyclo[14.7.2.03,6.019,24]pentacosa-8,16,18,24-tetraene-22,1′-tetralin]-7-yl] 4-(2-methoxyethyl)piperazine-1-carboxylate] | < 1 | < 500 | 
COCC[C@H]1C(=O)NS(=O)(=O)c2ccc3c(c2)N(C[C@@H]2CC[C@H]2[C@H](OC)/C=C/C[C@@H]1C)C[C@@]1(CCCc2cc(Cl)ccc21)CO3 [Example 89, (3R,6R,7R,8E,11S,12R,22S)-6′-Chloro-7-methoxy-12-(2-methoxyethyl)-1-methyl-15,15-dioxo-spiro[20-oxa-15-thia-1,14-diazatetracyclo[14.7.2.03,6.019,24]pentacosa-8,16,18,24-tetraene-22,1′-tetralin]-13-one] | 1 to 100 | > 1000 | 
CN(C)C(=O)O[C@@H]1/C=C/COC2(CC2)C(=O)NS(=O)(=O)c2ccc3c(c2)N(C[C@@H]2CC[C@H]21)C[C@@]1(CCCc2cc(Cl)ccc21)CO3 [Example 39, [(3R,6R,7R,8E,22S)-6′-Chloro-12,12-ethylene-13,15,15-trioxo-spiro[11,20-dioxa-15-thia-1,14-diazatetracyclo[14.7.2.03,6.019,24]pentacosa-8,16,18,24-tetraene-22,1′-tetralin]-7-yl] N,N-dimethylcarbamate] | < 1 | < 1000 | 
CC(=O)NS(=O)(=O)c1ccc2c(c1)N(CC1CCCCC1)CC1(CCCc3cc(Cl)ccc31)CO2 (stereo not drawn) [Example 3, N-[6′-Chloro-5-(cyclohexylmethyl)spiro[2,4-dihydro-1,5-benzoxazepine-3,1′-tetralin]-7-yl]sulfonylacetamide] |  | > 1000 | 143
CO[C@H]1/C=C/CC[C@@H](C)C(=O)NS(=O)(=O)c2ccc3c(c2)N(C[C@@H]2CC[C@H]21)C[C@@]1(CCCc2cc(Cl)ccc21)CO3 [Example 81, (3R,6R,7S,8E,12R,22S)-6′-Chloro-7-methoxy-12-methyl-15,15-dioxo-spiro[20-oxa-15-thia-1,14-diazatetracyclo[14.7.2.03,6.019,24]pentacosa-8,16(25),17,19(24)-tetraene-22,1′-tetralin]-13-one] | 1 to 100 | > 1000 | 
CCO[C@@H]1CCN(C(=O)O[C@H]2/C=C/COC(C)(C)C(=O)NS(=O)(=O)c3ccc4c(c3)N(C[C@@H]3CC[C@H]32)C[C@@]2(CCCc3cc(Cl)ccc32)CO4)C1 [Example 59, [(3R,6R,7S,8E,22S)-6′-Chloro-12,12-dimethyl-13,15,15-trioxo-spiro[11,20-dioxa-15-thia-1,14-diazatetracyclo[14.7.2.03,6.019,24]pentacosa-8,16,18,24-tetraene-22,1′-tetralin]-7-yl] (3R)-3-ethoxypyrrolidine-1-carboxylate] | < 1 | < 500 | 
CO[C@@H]1/C=C/C[C@H](C)CC(=O)NS(=O)(=O)c2ccc3c(c2)N(C[C@@H]2CC[C@H]21)C[C@@]1(CCCc2cc(Cl)ccc21)CO3 [Example 71, (3R,6R,7R,8E,11S,22S)-6′-Chloro-7-methoxy-11-methyl-15,15-dioxo-spiro[20-oxa-15-thia-1,14-diazatetracyclo[14.7.2.03,6.019,24]pentacosa-8,16(25),17,19(24)-tetraene-22,1′-tetralin]-13-one] | 1 to 100 | > 1000 | 
